Measurements taken from PubChem BioAssay (NCI).
“And” between values parts separate entries of the source, which are not always exact repeats. Identical values can stand only once.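 Method: 48-hour compound exposure of cells in 96-well plates, five concentrations, linear interpolation of endpoints. GI50 marks 50% less growth. TGI marks complete inhibition of growth.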

Tests used:
Experiment in all cases: growth of human tumour cells (NCI), 48 h
A549 NSCLC = system: A549 NSCLC
COLO 205 colon = system: COLO 205 colon
LOX IMVI melanoma = system: LOX IMVI melanoma
MALME-3M melanoma = system: MALME-3M melanoma
MDA-MB-435 = system: MDA-MB-435
NCI-H23 lung = system: NCI-H23 lung
NCI/ADR-RES ovarian = system: NCI/ADR-RES ovarian
SF-268 CNS = system: SF-268 CNS
U251 CNS = system: U251 CNS
UACC-62 melanoma = system: UACC-62 melanoma

SMILES	GI50 (A549 NSCLC)	TGI (A549 NSCLC)	GI50 (COLO 205 colon)	TGI (COLO 205 colon)	GI50 (LOX IMVI melanoma)	TGI (LOX IMVI melanoma)	GI50 (MALME-3M melanoma)	TGI (MALME-3M melanoma)	GI50 (MDA-MB-435)	TGI (MDA-MB-435)	GI50 (NCI-H23 lung)	TGI (NCI-H23 lung)	GI50 (NCI/ADR-RES ovarian)	TGI (NCI/ADR-RES ovarian)	GI50 (SF-268 CNS)	TGI (SF-268 CNS)	GI50 (U251 CNS)	TGI (U251 CNS)	GI50 (UACC-62 melanoma)	TGI (UACC-62 melanoma)
O=C(Nc1cccc([N+](=O)[O-])c1)c1cc2ccccc2cc1O	2.84 µM	> 100 µM	1.88 µM	3.44 µM	1.87 µM	7.69 µM	0.376 µM	2.26 µM	1.5 µM	5.41 µM	0.72 µM	3.65 µM	1.76 µM	6.54 µM	2.98 µM	> 100 µM	1.48 µM	9.27 µM	0.685 µM	–
Cc1nc2sc(C(=O)Nc3cccc(Cl)c3C)c(N)c2cc1C(C)O (centres undefined)	0.246 µM	> 61.8 µM	0.257 µM	7.04 µM	0.274 µM	> 44.1 µM	1.11 µM	37.5 µM	0.0288 µM	0.101 µM	0.567 µM	> 56.6 µM	0.119 µM	> 61.3 µM	5.75 µM	> 82.2 µM	0.223 µM	> 39.2 µM	0.0852 µM	44.9 µM
CC(C)(F)C[C@H](N[C@@H](c1ccc(-c2ccc(S(C)(=O)=O)cc2)cc1)C(F)(F)F)C(=O)NC1(C#N)CC1	> 55 µM and 41.8 µM	> 100 µM	> 100 µM	> 100 µM	> 100 µM	> 100 µM	17.5 µM and 22.2 µM	55 µM and 62 µM	> 100 µM	> 100 µM	28.5 µM and 39.9 µM	55 µM and > 100 µM	34.1 µM	55 µM	22 µM and 18.8 µM	55 µM and 48.9 µM	17.9 µM and 30.3 µM	55 µM and > 100 µM	27.3 µM and 51.9 µM	55 µM and > 100 µM
NC(=S)N/N=C\c1nccc2c(C(F)(F)C(F)(F)C(F)(F)F)cccc12	0.0978 µM	1.1 µM	0.0327 µM	1.9 µM	0.0725 µM	1.34 µM	0.189 µM	1.43 µM	0.376 µM	> 31.6 µM	0.422 µM	12.4 µM	0.167 µM	1.65 µM	0.0983 µM	4.22 µM	0.0569 µM	1.25 µM	0.171 µM	0.511 µM
O=C(Nc1ccccc1C(=O)Nc1nccs1)c1ccccc1	–	> 100 µM	–	> 100 µM	–	> 100 µM	–	> 100 µM	–	> 100 µM	–	> 100 µM	–	> 100 µM	–	60.9 µM	–	> 100 µM	–	> 100 µM
FC(F)(F)c1cc(NC2=NCCN=C(Nc3cc(C(F)(F)F)cc(C(F)(F)F)c3)SS2)cc(C(F)(F)F)c1	3.68 µM	17.4 µM	3.47 µM	13.2 µM	4.59 µM	16.9 µM	4.12 µM	15.5 µM	3.83 µM	14.1 µM	4.75 µM	17.4 µM	5.23 µM	21.5 µM	5.68 µM	19.8 µM	2.82 µM	10.7 µM	3.55 µM	14.5 µM
CCN(CC)CCOc1nc2cc(OC)c(OC)cc2c2c1-c1ccc(OC)cc1C2=O	1.48 µM	2.87 µM	11.5 µM	24.6 µM	1.27 µM	2.7 µM	21.1 µM	36.9 µM	13.3 µM	26 µM	12.5 µM	27.9 µM	13.2 µM	29.8 µM	4.93 µM	21.9 µM	2.42 µM	18.7 µM	15.5 µM	36.3 µM
Cc1ccc(S(=O)(=O)c2ccsc2N)cc1	> 100 µM	> 100 µM	> 100 µM	> 100 µM	> 100 µM	> 100 µM	> 100 µM	> 100 µM	> 100 µM	> 100 µM	> 100 µM	> 100 µM	> 100 µM	> 100 µM	97.7 µM	> 100 µM	> 100 µM	> 100 µM	> 100 µM	> 100 µM
CC(C)N(Cc1ccccc1)S(=O)(=O)c1n[nH]c(C(C)(C)C)n1	–	> 100 µM	–	> 100 µM	–	> 100 µM	–	> 100 µM	–	> 100 µM	–	> 100 µM	–	> 100 µM	–	> 100 µM	–	> 100 µM	–	> 100 µM
CS(=O)(=O)Nc1cc(-c2ccc3ncnc(Nc4cccc(Cl)c4F)c3c2)cnc1Cl	5.3 µM	24.1 µM	4.23 µM	27.8 µM	1.58 µM	5.45 µM	1.83 µM	7.66 µM	4.73 µM	21.9 µM	2.33 µM	10.1 µM	7.02 µM	31.8 µM	1.41 µM	19.3 µM	2.45 µM	14.9 µM	1.76 µM	11.7 µM
C#CCOc1cccc(Nc2ncc3ncn(C4CCN(C(=O)CCl)C4)c3n2)c1 (centres undefined)	> 62.5 µM	> 62.5 µM	> 62.5 µM	> 62.5 µM	13.2 µM	> 62.5 µM	8.78 µM	56.2 µM	> 62.5 µM	> 62.5 µM	> 62.5 µM	> 62.5 µM	> 62.5 µM	> 62.5 µM	> 62.5 µM	> 62.5 µM	> 62.5 µM	> 62.5 µM	> 62.5 µM	> 62.5 µM
O=C1NC(O)CCN1C1CC(O)C(CO)O1 (centres undefined)	–	> 100 µM	–	> 100 µM	–	> 100 µM	–	> 100 µM	–	> 100 µM	–	> 100 µM	–	> 100 µM	–	> 100 µM	–	> 100 µM	–	> 100 µM
O=c1[nH]cnc2nc(-c3ccc(N(CCCl)CCCl)cc3)[nH]c12	6.19 µM	> 100 µM	> 100 µM	> 100 µM	1.75 µM	> 100 µM	33 µM	> 100 µM	3.21 µM	> 100 µM	31.7 µM	> 100 µM	13.1 µM	> 100 µM	28.6 µM	> 100 µM	20.1 µM	> 100 µM	0.507 µM	71.6 µM
